According to patent EP4692079A1, “CYP11A1 INHIBITOR AND USE THEREOF” (priority 2023, dated 2024):
Like-named read-outs stand apart in the source and are kept apart here.

Assays:
[1] = test system: testosterone level in NCI-H295R cells; test: cells; format: cell-based; conditions: Homo sapiens, NCI-H295R, 72 h; for IC50: read-out: Testosterone level in H295R (Elisa) IC50 nM
Experimental: The purpose of the experimental study was intended to detect the testosterone level in the NCI-H295R cells by adopting the Enzyme linked immunosorbent assay (ELISA), so as to evaluate the inhibitory effects of the compounds on the testosterone level in the NCI-H295R cells.
The H295R cells were purchased from ATCC, the cell complete medium contained DMEM: F12+ 10% FBS +0.00625 mg/ml insulin +0.00625 mg/ml transferrin+6.25 ng/ml selenium +1.25 mg/ml BSA+0.00535 mg/ml linoleic acid, and the cells were cultured in a 37°C, 5% CO2 incubator. The cells in the exponential growth phase were collected, and cultured in a cytokine-free medium (phenol red 1640-free +1% PS+10% css FBS+1.25 mg/ml BSA +0.00625 mg/ml insulin + 0.00625 mg/ml transferrin+6.25 ng/ml selenium+0.00535 mg/ml linoleic acid) for three days. The cells in the exponential growth phase were collected on the third day. The cell suspension was adjusted with a cytokine-free medium to a corresponding concentration and plated at 60000 cells/well, with the volume being 90 µL/well. Subsequently, 10 µL of the compounds at different concentrations was added and the plate was incubated in a CO2 incubator for three days. After the incubation was completed, according to the operation instructions for testosterone Elisa kit (Beyotime, PT872), 50 µL of the cell culture supernatant was collected from each well and centrifuged at 500 g for 5 min at room temperature and then the resulting supernatant was collected. The samples were added to the corresponding wells at 25 µl/well, and then formulated horseradish peroxidase labelled testosterone was added at 75 µl/well. The mixture was fully mixed for 10 seconds. The reaction wells were sealed with a plate-sealing film (white) and the mixture was incubated at room temperature in the dark for 120 min. The plate was washed three times with a volume of 300 µl per well, and then placed onto thick absorbent paper and dried. Chromogenic reagent TMB solution was added at 100 µl/well. The reaction wells were sealed with a plate-sealing film (white) and the mixture was incubated at room temperature in the dark for 15-20 min. Subsequently, a termination solution was added at 50 µl/well, and after the mixture was fully mixed, the absorbance value OD450 was immediately measured. The absorbance readings were processed using Graphpad Prim 8.0 software and S-shaped concentration curves were plotted and the IC50 values were calculated using a four-parameter non-linear regression model.

[2] = test system: pregnenolone level in NCI-H295R cells; test: cells; format: cell-based; conditions: Homo sapiens, 72 h; for IC50: read-out: Pregnenolone level in H295R (Elisa) IC50 nM; for inhibition at 0.1 µM: read-out: Pregnenolone level in H295R (Elisa) inh.% 100 nM; for inhibition at 1 µM: read-out: Pregnenolone level in H295R (Elisa) inh.% 1000 nM
Experimental: 2. The purpose of the experimental study was intended to detect the pregnenolone level in the NCI-H295R cells by adopting the Enzyme linked immunosorbent assay (ELISA), so as to evaluate the inhibitory effects of the compounds on the pregnenolone level in the NCI-H295R cells.
The H295R cells were purchased from ATCC (CRL-2128), the cell complete medium contained DMEM: F12+ 10% FBS +0.00625 mg/ml insulin+0.00625 mg/mL transferrin+6.25 ng/mL selenium+1.25 mg/mL BSA+0.00535 mg/mL linoleic acid, and the cells were cultured in a 37°C, 5% CO2 incubator. The cells in the exponential growth phase were collected, and cultured in a cytokine-free medium (phenol red 1640-free +1% PS+10% css FBS+1.25 mg/mL BSA +0.00625 mg/mL insulin+0.00625 mg/mL transferrin+6.25 ng/mL selenium+0.00535 mg/mL linoleic acid) for three days. The cells in the exponential growth phase were collected on the third day. The cell suspension was adjusted with a cytokine-free medium to a corresponding concentration and plated at 60000 cells/well, with the volume being 90 µL/well. Subsequently, 10 µL of the compounds at different concentrations was added and the plate was incubated in a CO2 incubator for three days. After the incubation was completed, the cell culture supernatant was collected and centrifuged at 2°C-8°C at 800×g for 10 min. The resulting supernatant was collected. Determination was carried out according to the operation instructions for pregnenolone Elisa kit (Antibodies-A73791), and the OD450 signal was read.
2.1 Standard curve plotting. The standard concentration was taken as the abscissa and the OD450 value as the ordinate, the coordinate points of various standards were connected with a smooth line and a curve was fitted according to the four parameter logistic (4-PL) method.
2.2 Sample quantification: The corresponding concentration (CONC) of testosterone/pregnenolone in the sample was calculated using the absorbance value of the sample and the standard curve. According to formula (1), the inhibition rate of the compound at various concentrations was calculated, and S-shaped concentration curves were plotted and the IC50 values (i.e., concentration of the compound at which the inhibition rate was 50%) were calculated using a three parameter non-linear regression model in Graphpad Prim 8.0 software. CONC cpd was the concentration of the treated group, and CONC ctrl was the average concentration value of the solvent control group. Inhibition rate% = 100%−CONCcpd /CONCctrl × 100% [formula] Table 3 Inhibitory effects of compounds on pregnenolone level in NCI-H295R cells

[3] = Pharmacokinetic test in mice; format: in vivo; conditions: mouse, male ICR mice, plasma; for Vd: read-out: Vdss
Experimental: 4.1. Experimental animals: Male ICR mice, 20-25 g, 6 mice/compound, were purchased from Chengdu Dossy Experimental Animals Co., Ltd.
4.2 Experimental design: on the day of the experiment, the ICR mice were randomly grouped according to their body weights. […] Table 6 Administration information
Before and after administration, 0.06 mL of blood was taken from the orbit under isoflurane anaesthesia and placed in an EDTAK2 centrifuge tube. The tube was centrifuged at 5000 rpm at 4°C for 10 min, and plasma was collected. […] Before analysis and detection, all samples were stored at -80°C, and the samples were quantitatively analysed by LC-MS/MS.

[4] = Pharmacokinetic test in rats; format: in vivo; conditions: rat, male SD rats, plasma; for Vd: read-out: Vdss
Experimental: 3.1 Experimental animals: Male SD rats (about 220 g, 6-8 weeks old, 6 rats/compound) were purchased from Chengdu Dossy Experimental Animals Co., Ltd.
3.2 Experimental design: On the day of the experiment, the SD rats were randomly grouped by body weight. […] Table 4 Administration information
Before and after the administration, 0.1 ml of blood was taken from the orbit of the animals under isoflurane anaesthesia and placed in an EDTAK2 centrifuge tube. The blood was centrifuged at 5000 rpm and 4°C for 10 min to collect plasma. […] Before analysis and detection, all samples were stored at -80°C. Table 5 Pharmacokinetic parameters of test compounds in plasma of rats

[5] = read-out: Testosterone level in H295R (Elisa) inh.% 100 nM
[6] = read-out: Testosterone level in H295R (Elisa) inh.% 1000 nM
[7] = po, intragastric administration (10 mg/kg)
[8] = intravenous administration (2.5 mg/kg)
[9] = read-out: Testosterone level in H295R (Elisa) inh.% 100 nM, 100 nM compound, NCI-H295R cells, three days incubation
[10] = read-out: Testosterone level in H295R (Elisa) inh.% 1000 nM, 1000 nM compound, NCI-H295R cells, three days incubation

| Structure (SMILES) | IC50 [1] [nM] | inhibition at 0.1 µM [1, 5] [%] | inhibition at 1 µM [1, 6] [%] | IC50 [2] [nM] | inhibition at 0.1 µM [2] [%] | inhibition at 1 µM [2] [%] | AUC(0-t) [3, 7] [ng·h/mL] | half-life [3, 7] [min] | AUC(0-t) [3, 8] [ng·h/mL] | clearance [3, 8] [mL/min/kg] | half-life [3, 8] [min] | Vd [3, 8] [L/kg] | AUC(0-t) [4, 7] [ng·h/mL] | half-life [4, 7] [min] | inhibition at 0.1 µM [1, 9] [%] | inhibition at 1 µM [1, 10] [%] | AUC(0-t) [4, 8] [ng·h/mL] | clearance [4, 8] [mL/min/kg] | half-life [4, 8] [min] | Vd [4, 8] [L/kg] |
| --- | --- | --- | --- | --- | --- | --- | --- | --- | --- | --- | --- | --- | --- | --- | --- | --- | --- | --- | --- | --- |
| O=C(N[C@H]1CC[C@H](/C=C/c2coc(CN3Cc4ccc(C(F)(F)F)cc4C3)cc2=O)CC1)[C@H]1CC1(F)F [Compound 90] | 73 | 80 | 85 | 119 | 43.4 | 67 | 40600 | 382 | 10600 | 3.67 | 404 | 1.73 | – | – | – | – | – | – | – | – |
| [2H]C([2H])([2H])C(=O)N[C@H]1CC[C@H](COc2coc(CN3Cc4ccc(C(F)(F)F)cc4C3)cc2=O)CC1 [Compound 33] | 68 | – | – | – | – | – | 8430 | 147 | 2090 | 19.9 | 54.5 | 1.19 | 19600 | 122 | – | – | – | – | – | – |
| C=C1CC(C(=O)N[C@H]2CC[C@H](/C=C/c3coc(CN4Cc5ccc(C(F)(F)F)cc5C4)cc3=O)CC2)C1 [Compound 116] | – | – | – | – | 48 | 75 | – | – | – | – | – | – | – | – | 60 | 66 | – | – | – | – |
| O=C(N[C@H]1CC[C@H](CCc2coc(CN3Cc4ccc(C(F)(F)F)cc4C3)cc2=O)CC1)C1CC(F)(F)C1 [Compound 95] | – | – | – | – | 50 | 66 | – | – | – | – | – | – | – | – | 57 | 81 | – | – | – | – |
| O=C(N[C@H]1CC[C@@H](COc2coc(CN3Cc4ccc(C(F)(F)F)cc4C3)cc2=O)CC1)C1COC1 [Compound 54] | – | 53.2 | 72.2 | – | – | – | 28100 | 178 | 5870 | 7.19 | 179 | 1.17 | – | – | – | – | – | – | – | – |
| O=C(CC1CC1)N1CCC(/C=C/c2coc(CN3Cc4ccc(C(F)(F)F)cc4C3)cc2=O)CC1 [Compound 52] | 98.2 | 55.8 | 74.9 | – | – | – | – | – | – | – | – | – | 10500 | 133 | – | – | 3300 | 12.3 | 82.2 | 1.39 |
| C/C(=C\[C@H]1CC[C@H](NC(=O)c2cnn(C)c2)CC1)c1coc(CN2Cc3ccc(C(F)(F)F)cc3C2)cc1=O [Compound 107] | – | 60 | 78 | – | – | – | – | – | – | – | – | – | 22500 | 249 | – | – | 6030 | 6.96 | 203 | 1.55 |
| O=C(OC1CC1)N1CCC(COc2coc(CN3Cc4ccc(OC5CC5)cc4C3)cc2=O)CC1 [Compound 27] | 50.1 | – | – | – | 65.5 | 67.5 | – | – | – | – | – | – | – | – | 78 | 68 | – | – | – | – |
| [2H]C([2H])([2H])C(=O)N[C@H]1CC[C@H](/C=C/c2coc(CN3Cc4ccc(C(F)(F)F)cc4C3)cc2=O)CC1 [Compound 80] | – | – | – | 190 | 38.1 | 59.1 | – | – | – | – | – | – | – | – | 71 | 84 | – | – | – | – |
| CS(=O)(=O)N1CC(OC(=O)N[C@H]2CC[C@H](COc3coc(CN4Cc5ccc(C(F)(F)F)cc5C4)cc3=O)CC2)C1 [Compound 64] | – | 73 | 75 | – | – | – | – | – | – | – | – | – | 10100 | 175 | – | – | 3440 | 12.1 | 159 | 2.09 |
| O=c1cc(CN2Cc3ccc(C(F)(F)F)cc3C2)occ1/C=C/[C@H]1CC[C@H](NC(=O)[C@H]2C[C@@H](F)C2)CC1 [Compound 100] | – | 70 | 85 | – | – | – | – | – | – | – | – | – | 17500 | 137 | – | – | 4660 | 8.86 | 108 | 1.29 |
| Cn1cc(C(=O)N[C@H]2CC[C@H](COc3coc(CN4Cc5ccc(C(F)(F)F)cc5C4)cc3=O)CC2)cn1 [Compound 35] | – | 72.8 | 75.5 | – | – | – | 24200 | 171 | 12500 | 3.34 | 161 | 0.557 | 18300 | 170 | – | – | 9100 | 4.66 | 163 | 0.788 |
| COC1CN(CC(=O)N2CCC(/C=C/c3coc(CN4Cc5ccc(C(F)(F)F)cc5C4)cc3=O)CC2)C1 [Compound 18] | 100 | – | – | – | 40.7 | 50.5 | – | – | – | – | – | – | – | – | 80.8 | 92.5 | – | – | – | – |
| Cc1nc(C(=O)N[C@H]2CC[C@H](/C=C/c3coc(CN4Cc5ccc(C(F)(F)F)cc5C4)cc3=O)CC2)co1 [Compound 84] | – | – | – | 121 | – | – | – | – | – | – | – | – | – | – | – | – | – | – | – | – |
